{
  "source": "patent US11911514B2",
  "about": "“Extended-release pharmaceutical composition containing lacosamide” (WHAN IN Pharmaceutical Company, priority 2018, dated 2024)",
  "origin": "cited, not measured here",
  "test_system": "patients with epilepsy",
  "settings": "taking 400 mg",
  "data": [
    {"compound": "COC[C@@H](NC(C)=O)C(=O)NCc1ccccc1", "note": "[lacosamide]", "values": [
      {"measurement": "Number of patients with seizures reduced by more than 50%", "result": "38-49%"}
    ]}
  ]
}
